# Measurements: patent US6472418B1, “Non-peptide NK1 receptors antagonists” (Warner-Lambert Company, priority 1998, dated 2002)
# Biological target: T1, Human NK1 Receptor (Homo sapiens, UniProt P25103)
# T1 construct: endogenous in cells; host or cells: Human lymphoma IM9 cells (whole cells)
# Experiment: In Vitro Human NK1 Receptor Binding Assay ([125I]Bolton-Hunter substance P displacement, IM9 cells)
# Details: human NK1 receptor, IM9 cells, [125I]Bolton-Hunter substance P; read-out: IC50 (nM) hNK1
# Outline: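 Radioligand displacement on whole IM9 human lymphoma cells (2.5×10^6 cells/mL) using [125I]Bolton-Hunter substance P (0.05-0.1 nM), 50 min at 21° C in Tris pH 7.4/MnCl2 buffer with protease inhibitors. Non-specific binding defined by […] [Sar9, Met(O2)11] substance P. Filtration, gamma counting, iterative curve fitting.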
# T1 sequence (P25103 whole entry): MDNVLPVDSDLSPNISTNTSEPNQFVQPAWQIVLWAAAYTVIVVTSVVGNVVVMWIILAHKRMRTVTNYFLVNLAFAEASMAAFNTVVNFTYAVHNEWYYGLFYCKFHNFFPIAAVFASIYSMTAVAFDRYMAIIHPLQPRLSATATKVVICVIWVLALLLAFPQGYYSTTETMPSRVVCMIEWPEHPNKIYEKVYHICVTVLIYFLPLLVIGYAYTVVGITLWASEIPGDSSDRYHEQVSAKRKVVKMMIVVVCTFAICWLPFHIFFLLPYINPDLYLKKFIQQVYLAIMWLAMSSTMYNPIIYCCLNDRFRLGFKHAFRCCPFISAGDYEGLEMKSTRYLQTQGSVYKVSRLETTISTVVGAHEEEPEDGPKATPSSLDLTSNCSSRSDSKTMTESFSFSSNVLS
row,Structure (SMILES),IC50
1,"CC(Cc1c[nH]c2ccccc12)(NCc1cc2ccccc2o1)C(=O)NCc1ccc(Cl)cc1Cl (stereo not shown) [compound 46, 2-[(Benzofuran-2-ylmethyl)-amino]-N-(2,4-dichloro-benzyl)-3-(1H-indol-3-yl)-2-methyl-propionamide]",1560 nM
2,"CC(Cc1c[nH]c2ccccc12)(NCc1cc2ccccc2o1)C(=O)NCCc1ccc(S(N)(=O)=O)cc1 (stereo not shown) [compound 47, 2-[(Benzofuran-2-ylmethyl)-amino]-3-(1H-indol-3-yl)-2-methyl-N-[2-(4-sulfamoyl-phenyl)-ethyl]-propionamide]",7620 nM
3,"CC(Cc1c[nH]c2ccccc12)(NCc1cc2ccccc2o1)C(=O)NCc1c(N)cccc1F (stereo not shown) [compound 48, N-(2-Amino-6-fluoro-benzyl)-2-[(benzofuran-2-ylmethyl)-amino]-3-(1H-indol-3-yl)-2-methyl-propionamide]",6420 nM
4,"CC(Cc1c[nH]c2ccccc12)(NCc1cc2ccccc2o1)C(=O)NCC1CCCCC1O (stereo not shown) [compound 49, 2-[(Benzofuran-2-ylmethyl)-amino]-N (2-hydroxy-cyclohexylmethyl)-3-(1H-indol-3-yl)-2-methyl-propionamide]",1550 nM
5,"CC(Cc1c[nH]c2ccccc12)(NCc1cc2ccccc2o1)C(=O)NCC(O)c1ccccc1 (stereo not shown) [compound 50, 2-[(Benzofuran-2-ylmethyl)-amino]-N-(2-hydroxy-2-phenyl-ethyl)-3-(1H-indol-3-yl)-2-methyl-propionamide]",1330 nM
6,"CN1CCCC1CCNC(=O)C(C)(Cc1c[nH]c2ccccc12)NCc1cc2ccccc2o1 (stereo not shown) [compound 52, 2-[(Benzofuran-2-ylmethyl)-amino]-3-(1H-indol-3-yl)-2-methyl-N-[2-(1-methyl-pyrrolidin-2-yl)-ethyl]-propionamide]",> 10000 nM
7,"CC(Cc1c[nH]c2ccccc12)(NCc1cc2ccccc2o1)C(=O)NCCc1ccc(N)cc1 (stereo not shown) [compound 56, N-[2-(4-Amino-phenyl)-ethyl]-2-[(benzofuran-2-ylmethyl)-amino]-3-(1H-indol-3-yl)-2-methyl-propionamide]",3230 nM
8,"CC(Cc1c[nH]c2ccccc12)(NCc1cc2ccccc2o1)C(=O)NCc1cccc(OC(F)(F)F)c1 (stereo not shown) [compound 59, 2-[(Benzofuran-2-ylmethyl)-amino]-3-(1H-indol-3-yl)-2-methyl-N-(3-trifluoromethoxy-benzyl)-propionamide]",> 10000 nM
9,"CC(Cc1c[nH]c2ccccc12)(NCc1cc2ccccc2o1)C(=O)NCc1ccc(OC(F)(F)F)cc1 (stereo not shown) [compound 66, 2-[(Benzofuran-2-ylmethyl)-amino]-3-(1H-indol-3-yl)-2-methyl-N-(4-trifluoromethoxy-benzyl)-propionamide]",3440 nM
10,"CC(Cc1c[nH]c2ccccc12)(NCc1cc2ccccc2o1)C(=O)NC(Cc1ccccc1)c1ccccc1 (stereo not shown) [compound 75, 2-[(Benzofuran-2-ylmethyl)-amino]-N-(1,2-diphenyl-ethyl)-3-(1H-indol-3-yl)-2-methyl-propionamide]",> 10000 nM
11,"CNCCNC(=O)C(C)(Cc1c[nH]c2ccccc12)NCc1cc2ccccc2o1 (stereo not shown) [compound 76, 2-[(Benzofuran-2-ylmethyl)-amino]-3-(1H-indol-3-yl)-2-methyl-N-(2-methylamino-ethyl)-propionamide]",3700 nM
12,"CC(Cc1c[nH]c2ccccc12)(NCc1cc2ccccc2o1)C(=O)NC12CN3CN(CN(C3)C1)C2 (stereo not shown) [compound 78, 2-[(Benzofuran-2-ylmethyl)-amino]-3-(1H-indol-3-yl)-2-methyl-N-(1,3,5-triaza-tricyclo[3.3.1.1>3,7]-dec-7-yl)-propionamide]",> 10000 nM
13,"CC(Cc1cccc(C(F)(F)F)c1)NC(=O)C(C)(Cc1c[nH]c2ccccc12)NCc1cc2ccccc2o1 (stereo not shown) [compound 79, 2-[(Benzofuran-2-ylmethyl)-amino]-3-(1H-indol-3-yl)-2-methyl-N-[1-methyl-2-(3-trifluoromethyl-phenyl)-ethyl]-propionamide]",> 10000 nM
14,"CC(Cc1c[nH]c2ccccc12)(NCc1cc2ccccc2o1)C(=O)NCC(c1ccccc1)c1ccccn1 (stereo not shown) [compound 80, 2-[(Benzofuran-2-ylmethyl)-amino]-3-(1H-indol-3-yl)-2-methyl-N-(2-phenyl-2-pyridin-2-yl-ethyl)-propionamide]",> 10000 nM
15,"COC(=O)c1ccc(CNC(=O)C(C)(Cc2c[nH]c3ccccc23)NCc2cc3ccccc3o2)c(OC)c1 (stereo not shown) [compound 81, 4-{[2-[(Benzofuran-2-ylmethyl)-amino]-3-(1H-indol-3-yl)-2-methyl-propionylamino]-methyl}-3-methoxy-benzoic acid methyl ester]",> 10000 nM

# These reach a lower IC50. Values come first.
row,IC50,Structure (SMILES)
1,1230 nM,"CC(Cc1c[nH]c2ccccc12)(NCc1cc2ccccc2o1)C(=O)NCC(O)c1ccccc1 (stereo not shown) [compound 73, 2-[(Benzofuran-2-ylmethyl)-amino]-N-(2-hydroxy-2-phenyl-ethyl)-3-(1H-indol-3-yl)-2-methyl-propionamide]"
2,1140 nM,"CC(NC(=O)C(C)(Cc1c[nH]c2ccccc12)NCc1cc2ccccc2o1)C(C)(C)C (stereo not shown) [compound 82, 2-[(Benzofuran-2-ylmethyl)-amino]-3(1H-indol-3-yl)-2-methyl-N-(1,2,2-trimethyl-propyl)-propionamide]"
3,964 nM,"CN(C)c1ccc(CNC(=O)C(C)(Cc2c[nH]c3ccccc23)NCc2cc3ccccc3o2)cc1 (stereo not shown) [compound 60, 2-[(Benzofuran-2-ylmethyl)-amino]-N-(4-dimethylamino-benzyl)-3-(1H-indol-3-yl)-2-methyl-propionamide]"
4,837 nM,"CC(Cc1c[nH]c2ccccc12)(NCc1cc2ccccc2o1)C(=O)NCc1ccc(N)cc1 (stereo not shown) [compound 62, N-(4-Amino-benzyl)-2-[(benzofuran-2-ylmethyl)-amino]-3-(1H-indol-3-yl)-2-methyl-propionamide]"
5,834 nM,"Cc1cccc(CNC(=O)C(C)(Cc2c[nH]c3ccccc23)NCc2cc3ccccc3o2)c1C (stereo not shown) [compound 54, 2-[(Benzofuran-2-ylmethyl)-amino]-N-(2,3-dimethyl-benzyl)-3-(1H-indol-3-yl)-2-methyl-propionamide]"
6,700 nM,"CC(Cc1c[nH]c2ccccc12)(NCc1cc2ccccc2o1)C(=O)NCc1ccccc1Br (stereo not shown) [compound 65, 2-[(Benzofuran-2-ylmethyl)-amino]-N-(2-bromo-benzyl)-3-(1H-indol-3-yl)-2-methyl-propionamide]"
7,643 nM,"COc1cccc(CNC(=O)C(C)(Cc2c[nH]c3ccccc23)NCc2cc3ccccc3o2)c1 (stereo not shown) [compound 55, 2-[(Benzofuran-2-ylmethyl)-amino]-3-(1H-indol-3-yl)-N-(3-methoxy-benzyl)-2-methyl-propionamide]"
8,312 nM,"COc1ccc(CNC(=O)C(C)(Cc2c[nH]c3ccccc23)NCc2cc3ccccc3o2)cc1 (stereo not shown) [compound 68, 2-[(Benzofuran-2-ylmethyl)-amino]-3-(1H-indol-3-yl)-N-(4-methoxy-benzyl)-2-methyl-propionamide]"
9,262 nM,"CC(Cc1c[nH]c2ccccc12)(NCc1cc2ccccc2o1)C(=O)NCCc1ccccc1 (stereo not shown) [compound 53, 2-[(Benzofuran-2-ylmethyl)-amino]-3-(1H-indol-3-yl)-2-methyl-N-phenethyl-propionamide]"
10,216 nM,"CC(Cc1c[nH]c2ccccc12)(NCc1cc2ccccc2o1)C(=O)NCCC1CCCCC1 (stereo not shown) [compound 70, 2-[(Benzofuran-2-ylmethyl)-amino]-N-(2-cyclohexyl-ethyl)-3-(1H-indol-3-yl)-2-methyl-propionamide]"
11,179 nM,"CC(Cc1c[nH]c2ccccc12)(NCc1cc2ccccc2o1)C(=O)NCc1cc(C(F)(F)F)cc(C(F)(F)F)c1 (stereo not shown) [compound 51, 2-[(Benzofuran-2-ylmethyl)-amino]-N-(3,5-bis-trifluoromethyl-benzyl)-3-(1H-indol-3-yl)-2-methyl-propionamide]"
12,144 nM,"Cc1ccc(CNC(=O)C(C)(Cc2c[nH]c3ccccc23)NCc2cc3ccccc3o2)cc1 (stereo not shown) [compound 71, 2-[(Benzofuran-2-ylmethyl)-amino]-3-(1H-indol-3-yl)-2-methyl-N-(4-methyl-benzyl)-propionamide]"
13,76 nM,"CC(Cc1c[nH]c2ccccc12)(NCc1cc2ccccc2o1)C(=O)NCc1ccc(Cl)cc1 (stereo not shown) [compound 64, 2-[(Benzofuran-2-ylmethyl)-amino]-N-(4-chloro-benzyl)-3-(1H-indol-3-yl)-2-methyl-propionamide]"
14,61 nM,"CC(Cc1c[nH]c2ccccc12)(NCc1cc2ccccc2o1)C(=O)NCc1ccc(F)cc1 (stereo not shown) [compound 61, 2-[(Benzofuran-2-ylmethyl)-amino]-N-(4-fluoro-benzyl)-3-(1H-indol-3-yl)-2-methyl-propionamide]"
15,58 nM,"CCC(NC(=O)C(C)(Cc1c[nH]c2ccccc12)NCc1cc2ccccc2o1)c1ccccc1 (stereo not shown) [compound 63, 2-[(Benzofuran-2-ylmethyl)-amino]-3-(1H-indol-3-yl)-2-methyl-N-(1-phenyl-propyl)-propionamide]"
16,18 nM,"CC(Cc1c[nH]c2ccccc12)(NCc1cc2ccccc2o1)C(=O)NCc1cccc(Br)c1 (stereo not shown) [compound 72, 2-[(Benzofuran-2-ylmethyl)-amino]-N-(3-bromo-benzyl)-3-(1H-indol-3-yl)-2-methyl-propionamide]"
17,17 nM,"CC(Cc1c[nH]c2ccccc12)(NCc1cc2ccccc2o1)C(=O)NCc1cccc(Cl)c1 (stereo not shown) [compound 77, 2-[(Benzofuran-2-ylmethyl)-amino]-N-(3-chloro-benzyl)-3-(1H-indol-3-yl)-2-methyl-propionamide]"
18,12 nM,"CC(NC(=O)C(C)(Cc1c[nH]c2ccccc12)NCc1cc2ccccc2o1)c1ccccn1 (stereo not shown) [compound 69, 2-[(Benzofuran-2-ylmethyl)-amino]-3-(1H-indol-3-yl)-2-methyl-N-(1-pyridin-2-yl-ethyl)-propionamide]"
19,12 nM,"CC(Cc1c[nH]c2ccccc12)(NCc1cc2ccccc2o1)C(=O)NCc1cccc(C(F)(F)F)c1 (stereo not shown) [compound 74, 2-[(Benzofuran-2-ylmethyl)-amino]-3-(1H-indol-3-yl)-2-methyl-N-(3-trifluoromethyl-benzyl)-propionamide]"
